# In ChEMBL document CHEMBL1128078, “Evaluation of substituted benzamides as P2 ligands for symmetry-based inhibitors of HIV protease” (Bioorg Med Chem Lett, 1995):
# Columns and labels:
# [1] = test system: Human immunodeficiency virus 1; assay: Anti-HIV activity against MT-4 cells using a cytopathicity assay; type: functional, organism-based; settings: Human immunodeficiency virus 1, MT4
# [2] = biological target: Human immunodeficiency virus type 1 protease (Human immunodeficiency virus 1, UniProt Q72874); assay: Inhibitory activity against purified HIV protease
# [3] = test system: MT4; assay: Cytotoxicity against MT-4 cells using a cytopathicity assay.; type: functional, Homo sapiens
# [4] = test system: MT4; assay: Anti-HIV activity was determined against MT-4 cells using a cytopathicity assay; NE means no effect; type: functional, cell-based, Homo sapiens
SMILES,EC50 [1],IC50 [2],CCIC50 [3],EC50 [4]
COc1cc(C(=O)N[C@@H](Cc2ccccc2)[C@@H](O)C[C@H](Cc2ccccc2)NC(=O)OC(C)(C)C)ccc1O,2800 nM,3.3 nM,43 µM,
CC(C)(C)OC(=O)N[C@@H](Cc1ccccc1)C[C@H](O)[C@H](Cc1ccccc1)NC(=O)c1c(Cl)cccc1Cl,> 10000 nM,67 nM,19 µM,
CC(C)(C)OC(=O)N[C@@H](Cc1ccccc1)C[C@H](O)[C@H](Cc1ccccc1)NC(=O)c1ccc(O)cc1Cl,1800 nM,1.4 nM,23 µM,
CC(C)(C)OC(=O)N[C@@H](Cc1ccccc1)C[C@H](O)[C@H](Cc1ccccc1)NC(=O)c1cccc(O)c1,1600 nM,3.4 nM,45 µM,
CC(C)(C)OC(=O)N[C@@H](Cc1ccccc1)C[C@H](O)[C@H](Cc1ccccc1)NC(=O)c1ccc(N)c(N)c1,7600 nM,9.6 nM,81 µM,
Cc1c(N)cccc1C(=O)N[C@@H](Cc1ccccc1)[C@@H](O)C[C@H](Cc1ccccc1)NC(=O)OC(C)(C)C,1400 nM,2.6 nM,56 µM,
O=C(N[C@@H](Cc1ccccc1)[C@@H](O)C[C@H](Cc1ccccc1)NC(=O)c1ccc(O)cc1Cl)OCc1ccccc1,2200 nM,1.3 nM,18 µM,
COc1cc(C(=O)N[C@@H](Cc2ccccc2)C[C@H](O)[C@H](Cc2ccccc2)NC(=O)OCc2ccccc2)ccc1N,> 8000 nM,10.5 nM,18 µM,
CC(C)(C)OC(=O)N[C@@H](Cc1ccccc1)C[C@H](O)[C@H](Cc1ccccc1)NC(=O)c1ccccc1O,> 75000 nM,145 nM,>100 µM,
CC(C)(C)OC(=O)N[C@@H](Cc1ccccc1)C[C@H](O)[C@H](Cc1ccccc1)NC(=O)c1ccc(N)c(O)c1,,11 nM,11 µM,Not Active
CC(C)(C)OC(=O)N[C@@H](Cc1ccccc1)C[C@H](O)[C@H](Cc1ccccc1)NC(=O)c1ccc(N)cc1Cl,2900 nM,3.4 nM,48 µM,
CC(C)(C)OC(=O)N[C@@H](Cc1ccccc1)C[C@H](O)[C@H](Cc1ccccc1)NC(=O)OC(C)(C)C,,5.3 nM,,
Cc1c(O)cccc1C(=O)N[C@@H](Cc1ccccc1)[C@@H](O)C[C@H](Cc1ccccc1)NC(=O)OC(C)(C)C,1200 nM,1.6 nM,47 µM,
COc1cc(C(=O)N[C@@H](Cc2ccccc2)[C@@H](O)C[C@H](Cc2ccccc2)NC(=O)OC(C)(C)C)ccc1N,3200 nM,7.5 nM,38 µM,
O=C(N[C@@H](Cc1ccccc1)[C@@H](O)C[C@H](Cc1ccccc1)NC(=O)c1ccccc1)OCc1ccccc1,> 10000 nM,31 nM,>100 µM,
CC(C)(C)OC(=O)N[C@@H](Cc1ccccc1)C[C@H](O)[C@H](Cc1ccccc1)NC(=O)c1ccc(O)c(N)c1,5000 nM,7.6 nM,57 µM,
CC(C)(C)OC(=O)N[C@@H](Cc1ccccc1)C[C@H](O)[C@H](Cc1ccccc1)NC(=O)c1ccccc1,4300 nM,4.5 nM,16 µM,
CC(C)(C)OC(=O)N[C@@H](Cc1ccccc1)C[C@H](O)[C@H](Cc1ccccc1)NC(=O)c1cc(N)cc(N)c1,,250 nM,92 µM,Not Active
CC(C)(C)OC(=O)N[C@@H](Cc1ccccc1)C[C@H](O)[C@H](Cc1ccccc1)NC(=O)c1cc(O)cc(O)c1,11000 nM,51 nM,53 µM,
Nc1ccc(C(=O)N[C@@H](Cc2ccccc2)C[C@H](O)[C@H](Cc2ccccc2)NC(=O)OCc2ccccc2)c(Cl)c1,> 10000 nM,6.1 nM,15 µM,
CC(C)(C)OC(=O)N[C@@H](Cc1ccccc1)C[C@H](O)[C@H](Cc1ccccc1)NC(=O)c1cc(O)ccc1Cl,3700 nM,12 nM,19 µM,
CC(C)(C)OC(=O)N[C@@H](Cc1ccccc1)C[C@H](O)[C@H](Cc1ccccc1)NC(=O)c1c(Cl)ccc(N)c1Cl,,31 nM,,
O=C(N[C@@H](Cc1ccccc1)C[C@H](O)[C@H](Cc1ccccc1)NC(=O)OCc1ccccc1)OCc1ccccc1,> 30000 nM,5.6 nM,>100 µM,
Nc1ccc(C(=O)N[C@@H](Cc2ccccc2)C[C@H](O)[C@H](Cc2ccccc2)NC(=O)OCc2ccccc2)cc1O,> 10000 nM,22 nM,18 µM,
CC(C)(C)OC(=O)N[C@@H](Cc1ccccc1)C[C@H](O)[C@H](Cc1ccccc1)NC(=O)c1ccc(O)c(O)c1,2900 nM,4.1 nM,21 µM,
CC(C)(C)OC(=O)N[C@@H](Cc1ccccc1)C[C@H](O)[C@H](Cc1ccccc1)NC(=O)c1ccc(O)cc1,4800 nM,3.3 nM,29 µM,
COc1cccc(C(=O)N[C@@H](Cc2ccccc2)[C@@H](O)C[C@H](Cc2ccccc2)NC(=O)OC(C)(C)C)c1,> 10000 nM,23 nM,19 µM,
CC(C)(C)OC(=O)N[C@@H](Cc1ccccc1)C[C@H](O)[C@H](Cc1ccccc1)NC(=O)c1cc(N)ccc1Cl,1800 nM,3.3 nM,>100 µM,
CC(C)c1nc(CN(C)C(=O)N[C@H](C(=O)N[C@@H](Cc2ccccc2)C[C@H](O)[C@H](Cc2ccccc2)NC(=O)OCc2cncs2)C(C)C)cs1 [RITONAVIR],22 nM,,,
CC(C)(C)OC(=O)N[C@@H](Cc1ccccc1)C[C@H](O)[C@H](Cc1ccccc1)NC(=O)c1cccc(N)c1Cl,3100 nM,5.3 nM,55 µM,
